Source: ChEMBL document CHEMBL1201862, “PubChem BioAssay data set” (2004)
Active and inactive are the calls of the source.

Tests used:
[1] = system: Vero; test: viability loss in Vero cells – cell-based, plate reader, cherry-pick samples, cytotoxicity control, dose response (AID 687020); type: functional; settings: Chlorocebus sabaeus
[2] = target: Fructose-bisphosphate aldolase (Mycobacterium tuberculosis, UniProt P9WQA3); test: Fluorescence-based biochemical high throughput dose response assay for inhibitors of the fructose-bisphosphate aldolase (FBA) of M. tuberculosis.; type: functional
Sequence of Fructose-bisphosphate aldolase (P9WQA3 whole entry): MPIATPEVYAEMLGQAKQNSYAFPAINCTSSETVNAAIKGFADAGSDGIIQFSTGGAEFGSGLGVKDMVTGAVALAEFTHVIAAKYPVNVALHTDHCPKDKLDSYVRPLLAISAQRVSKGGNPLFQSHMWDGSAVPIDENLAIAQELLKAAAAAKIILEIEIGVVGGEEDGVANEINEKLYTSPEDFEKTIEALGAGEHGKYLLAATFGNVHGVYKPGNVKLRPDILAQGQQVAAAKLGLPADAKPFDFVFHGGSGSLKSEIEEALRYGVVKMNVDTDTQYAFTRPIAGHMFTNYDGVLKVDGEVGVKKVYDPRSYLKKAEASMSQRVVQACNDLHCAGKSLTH

[3] = target: T1, Beta-lactamase (Pseudomonas aeruginosa, UniProt Q79MP6)
T1 sequence (Q79MP6 whole entry): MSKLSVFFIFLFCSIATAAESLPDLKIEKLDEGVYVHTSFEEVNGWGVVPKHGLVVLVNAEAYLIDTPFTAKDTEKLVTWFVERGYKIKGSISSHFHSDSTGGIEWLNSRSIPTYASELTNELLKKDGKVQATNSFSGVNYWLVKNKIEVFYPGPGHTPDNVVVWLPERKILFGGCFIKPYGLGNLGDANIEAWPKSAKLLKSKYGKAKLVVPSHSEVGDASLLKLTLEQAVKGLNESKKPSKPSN

[4] = target: T2, Beta-lactamase (Salmonella choleraesuis (strain SC-B67), UniProt Q5J463)
T2 sequence (Q5J463 whole entry): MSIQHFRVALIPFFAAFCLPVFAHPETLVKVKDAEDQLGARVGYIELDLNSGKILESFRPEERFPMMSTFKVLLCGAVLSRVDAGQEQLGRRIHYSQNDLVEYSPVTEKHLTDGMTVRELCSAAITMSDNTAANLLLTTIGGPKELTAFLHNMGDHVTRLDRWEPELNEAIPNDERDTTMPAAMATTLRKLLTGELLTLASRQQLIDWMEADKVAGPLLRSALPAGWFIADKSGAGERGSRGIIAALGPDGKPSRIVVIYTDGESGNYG

[5] = target: T1, Beta-lactamase; test: […] counterscreen for selective VIM-2 inhibitors: dose response biochemical high throughput screening assay to identify inhibitors of IMP-1 metallo-beta-lactamase.
[6] = target: T2, Beta-lactamase; test: Epi-absorbance-based counterscreen for selective VIM-2 inhibitors: dose response biochemical high throughput screening assay to identify inhibitors of TEM-1 serine-beta-lactamase.
[7] = target: FAD-linked sulfhydryl oxidase ALR (Homo sapiens, UniProt P55789); test: ALR-catalysed DTT oxidation blockers – biochemical, H2O2 detection, luminescence, cherry-pick, dose response (AID 493248)
Sequence of FAD-linked sulfhydryl oxidase ALR (P55789 whole entry): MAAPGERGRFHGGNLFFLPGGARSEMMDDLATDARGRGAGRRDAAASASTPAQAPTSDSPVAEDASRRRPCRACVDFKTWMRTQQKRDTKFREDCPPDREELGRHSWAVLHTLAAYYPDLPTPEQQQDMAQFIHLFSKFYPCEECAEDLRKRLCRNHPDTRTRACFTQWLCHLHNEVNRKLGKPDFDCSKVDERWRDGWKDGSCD

[8] = target: T1, Beta-lactamase; test: inhibition of IMP-1 beta-lactamase activity – biochemical, epi-absorbance, selectivity assay for VIM-2 inhibitor project, dose response (AID 1920)
[9] = target: Protein S100-A4 (Homo sapiens, UniProt P26447); test: human S100A4 peptide interaction inhibition curves – biochemical, fluorescence polarization, cherry-picked hits, dose response (AID 687001); type: functional
Sequence of Protein S100-A4 (P26447 whole entry): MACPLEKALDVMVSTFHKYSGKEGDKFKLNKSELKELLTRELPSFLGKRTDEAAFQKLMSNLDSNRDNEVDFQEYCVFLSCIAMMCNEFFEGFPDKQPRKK

[10] = Trypanosoma cruzi growth suppression in host cells – NIH3T3 host cells, beta-gal luminescence, confirmation (AID 2044); type: functional, cell-based;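 further: intracellular parasites grown in NIH/3T3 mouse fibroblasts as host cells; luminescent beta-galactosidase reporter signal from transgenic T. cruzi replicating inside host cells; inhibitors lower the luminescence signal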
[11] = target: T3, Long-chain-fatty-acid--AMP ligase FadD28 (Mycobacterium tuberculosis, UniProt P9WQ59); test: Fluorescence polarization aasay to screen for inhibitors that compete for the binding of FadD28 to a bisubstrate Measured in Biochemical System Using Plate Reader - 2147-01_Inhibitor_Dose_CherryPick_Activity.; type: functional, Mycobacterium tuberculosis H37Rv
T3 sequence (P9WQ59 whole entry): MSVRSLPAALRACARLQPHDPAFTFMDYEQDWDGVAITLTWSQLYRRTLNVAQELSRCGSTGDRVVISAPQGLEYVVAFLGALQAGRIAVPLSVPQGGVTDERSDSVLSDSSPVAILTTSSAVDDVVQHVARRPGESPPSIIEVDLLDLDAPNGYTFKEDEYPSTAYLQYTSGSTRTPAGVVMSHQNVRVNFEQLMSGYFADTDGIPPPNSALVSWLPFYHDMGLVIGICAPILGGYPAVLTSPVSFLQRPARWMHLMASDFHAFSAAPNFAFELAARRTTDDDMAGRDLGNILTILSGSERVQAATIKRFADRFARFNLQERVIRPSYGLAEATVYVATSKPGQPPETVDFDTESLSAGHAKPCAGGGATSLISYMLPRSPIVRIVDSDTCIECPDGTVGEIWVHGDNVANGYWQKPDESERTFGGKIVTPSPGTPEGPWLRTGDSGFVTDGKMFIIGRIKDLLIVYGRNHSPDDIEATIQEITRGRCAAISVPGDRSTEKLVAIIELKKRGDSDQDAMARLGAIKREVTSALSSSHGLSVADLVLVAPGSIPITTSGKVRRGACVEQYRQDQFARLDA

[12] = target: Botulinum neurotoxin type F (Clostridium botulinum, UniProt P30996); test: High-throughput multiplex microsphere dose response for inhibitors of toxin protease, specifically Botulinum neurotoxin light chain F protease, compounds from Cherry Pick 02.; type: functional; settings: read-out: EC50_MICROM
Sequence of Botulinum neurotoxin type F (P30996 1-436 limits assumed): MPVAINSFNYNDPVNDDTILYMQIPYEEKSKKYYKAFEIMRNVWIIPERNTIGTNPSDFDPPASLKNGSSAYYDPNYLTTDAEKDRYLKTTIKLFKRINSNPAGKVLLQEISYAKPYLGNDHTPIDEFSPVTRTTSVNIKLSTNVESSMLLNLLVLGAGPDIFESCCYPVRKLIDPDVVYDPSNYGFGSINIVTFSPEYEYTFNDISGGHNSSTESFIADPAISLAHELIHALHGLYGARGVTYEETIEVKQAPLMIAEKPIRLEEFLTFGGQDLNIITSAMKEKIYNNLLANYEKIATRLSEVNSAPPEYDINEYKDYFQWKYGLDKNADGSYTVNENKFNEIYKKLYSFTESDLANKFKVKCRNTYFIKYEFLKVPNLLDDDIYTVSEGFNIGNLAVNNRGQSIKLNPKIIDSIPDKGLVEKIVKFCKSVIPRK

[13] = NIH3T3 cell viability loss – ATP luminescence, mouse fibroblasts, counter-screen, dose response (AID 2010); type: functional, cell-based;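 further: cells exposed to compound for about 90 hours before reading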
[14] = target: T4, Protein RecA (Mycobacterium tuberculosis, UniProt P9WHJ3); test: Fluorescence Cell-Free Homogeneous Dose Retest to Identify Inhibitors of RecA-Intein Splicing Activity. [Related pubchem assays (depositor defined):AID2097, AID2223, AID489010, AID492950]; type: functional
T4 sequence (P9WHJ3 whole entry): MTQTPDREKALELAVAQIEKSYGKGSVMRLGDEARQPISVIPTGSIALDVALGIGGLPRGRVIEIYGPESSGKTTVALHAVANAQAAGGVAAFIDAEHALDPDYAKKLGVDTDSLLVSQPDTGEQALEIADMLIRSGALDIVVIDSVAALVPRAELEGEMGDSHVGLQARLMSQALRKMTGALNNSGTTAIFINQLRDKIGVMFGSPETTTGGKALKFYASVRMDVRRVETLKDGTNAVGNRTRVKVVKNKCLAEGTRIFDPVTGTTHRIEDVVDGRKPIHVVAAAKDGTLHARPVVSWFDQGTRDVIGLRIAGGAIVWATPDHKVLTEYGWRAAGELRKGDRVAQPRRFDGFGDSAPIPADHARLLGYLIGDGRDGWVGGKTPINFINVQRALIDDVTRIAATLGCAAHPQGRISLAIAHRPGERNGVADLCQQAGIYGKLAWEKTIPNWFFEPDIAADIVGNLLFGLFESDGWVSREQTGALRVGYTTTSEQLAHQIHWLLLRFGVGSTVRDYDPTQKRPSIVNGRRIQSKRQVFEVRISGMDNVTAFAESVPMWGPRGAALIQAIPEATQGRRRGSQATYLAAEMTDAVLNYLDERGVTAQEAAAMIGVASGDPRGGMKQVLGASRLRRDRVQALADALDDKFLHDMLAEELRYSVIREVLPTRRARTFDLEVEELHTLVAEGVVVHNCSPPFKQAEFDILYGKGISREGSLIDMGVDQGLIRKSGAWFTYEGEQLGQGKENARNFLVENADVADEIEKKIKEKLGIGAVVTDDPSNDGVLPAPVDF

[15] = target: T5, Sentrin-specific protease 8 (Homo sapiens, UniProt Q96LD8); type: functional
T5 sequence (Q96LD8 whole entry): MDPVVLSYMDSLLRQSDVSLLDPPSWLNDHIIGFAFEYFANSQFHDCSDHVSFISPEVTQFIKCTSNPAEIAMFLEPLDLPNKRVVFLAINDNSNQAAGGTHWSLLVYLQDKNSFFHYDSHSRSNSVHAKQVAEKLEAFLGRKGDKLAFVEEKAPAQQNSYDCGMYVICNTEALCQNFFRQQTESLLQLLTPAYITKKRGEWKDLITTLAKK

[16] = target: T6, Replicative DNA helicase DnaB (Mycobacterium tuberculosis, UniProt P9WMR3); test: DnaB intein splicing inhibitors, dose response, biochemical, cell-free fluorescence (AID 449749); type: functional
T6 sequence (P9WMR3 whole entry): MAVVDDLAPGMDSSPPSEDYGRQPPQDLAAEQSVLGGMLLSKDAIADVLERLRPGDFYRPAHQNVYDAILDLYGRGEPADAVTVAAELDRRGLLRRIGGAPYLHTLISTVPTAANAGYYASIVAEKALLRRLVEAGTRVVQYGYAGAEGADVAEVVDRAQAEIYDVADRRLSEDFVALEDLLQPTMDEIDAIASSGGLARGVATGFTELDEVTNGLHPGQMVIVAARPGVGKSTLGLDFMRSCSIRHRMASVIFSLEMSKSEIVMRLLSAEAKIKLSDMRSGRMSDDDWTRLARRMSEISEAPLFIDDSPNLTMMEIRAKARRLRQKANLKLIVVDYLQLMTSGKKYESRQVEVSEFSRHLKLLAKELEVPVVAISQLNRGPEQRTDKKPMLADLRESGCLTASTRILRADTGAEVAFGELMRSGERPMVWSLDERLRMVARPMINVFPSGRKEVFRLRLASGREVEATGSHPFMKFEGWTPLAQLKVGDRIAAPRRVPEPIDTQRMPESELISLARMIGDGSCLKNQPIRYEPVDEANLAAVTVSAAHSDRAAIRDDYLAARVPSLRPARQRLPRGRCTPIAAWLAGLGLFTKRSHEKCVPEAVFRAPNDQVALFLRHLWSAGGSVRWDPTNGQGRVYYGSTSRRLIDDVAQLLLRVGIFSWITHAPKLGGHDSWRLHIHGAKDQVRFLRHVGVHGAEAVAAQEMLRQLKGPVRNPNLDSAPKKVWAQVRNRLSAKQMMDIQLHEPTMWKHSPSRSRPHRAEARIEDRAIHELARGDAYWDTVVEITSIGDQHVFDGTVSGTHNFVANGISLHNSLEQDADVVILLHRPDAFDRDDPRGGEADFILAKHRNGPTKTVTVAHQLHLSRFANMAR

[17] = target: T5, Sentrin-specific protease 8; type: functional; remark: listed apart in the source
[18] = general mammalian cell viability loss – inhibitor set, cherry-pick, set 2, cytotoxicity control for miR-122 modulator project, dose response (AID 720697); type: functional, cell-based
[19] = activation of miR-122 Renilla sensor silencing – cell-based, Huh7 psiCHECK-miR122, Renilla luciferase, cherry-picked, dose response (AID 651956); type: functional;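 further: huh7 hepatoma cells stably carrying a psiCHECK-2 miR-122 sensor plasmid; renilla luciferase signal reporting endogenous miR-122 activity after 48 h compound exposure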
[20] = general mammalian cell viability loss – activator set, cherry-pick, cytotoxicity control for miR-122 modulator project, dose response (AID 720690); type: functional, cell-based;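 further: HEK293T human cells scored for general mammalian cytotoxicity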
[21] = target: T7, Sentrin-specific protease 1 (Homo sapiens, UniProt Q9P0U3); test: SENP1 catalytic domain blockers, concentration series – biochemical, kinetic FRET, dose response (AID 651697); type: functional; settings: read-out: IC50_Mean
T7 sequence (Q9P0U3 whole entry, the tested form may be a part): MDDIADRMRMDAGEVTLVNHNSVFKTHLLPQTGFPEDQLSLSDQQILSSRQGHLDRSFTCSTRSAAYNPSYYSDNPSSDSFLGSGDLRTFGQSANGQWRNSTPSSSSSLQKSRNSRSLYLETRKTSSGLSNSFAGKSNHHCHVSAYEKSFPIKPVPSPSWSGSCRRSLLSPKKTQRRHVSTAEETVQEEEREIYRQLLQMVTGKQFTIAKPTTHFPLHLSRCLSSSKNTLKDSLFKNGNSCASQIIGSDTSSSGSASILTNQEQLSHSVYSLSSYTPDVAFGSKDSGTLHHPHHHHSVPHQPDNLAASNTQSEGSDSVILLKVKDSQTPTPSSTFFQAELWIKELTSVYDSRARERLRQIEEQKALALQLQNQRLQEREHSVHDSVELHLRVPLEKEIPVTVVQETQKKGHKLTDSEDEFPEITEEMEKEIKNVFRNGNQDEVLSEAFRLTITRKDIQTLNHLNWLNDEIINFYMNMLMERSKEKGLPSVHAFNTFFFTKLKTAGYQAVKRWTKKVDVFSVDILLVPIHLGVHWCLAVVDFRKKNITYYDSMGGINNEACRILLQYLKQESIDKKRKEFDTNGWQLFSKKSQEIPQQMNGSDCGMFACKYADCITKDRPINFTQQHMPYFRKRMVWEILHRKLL

[22] = target: T8, Zinc finger protein mex-5 (Caenorhabditis elegans, UniProt Q9XUB2); test: potency of MEX-5 RNA-binding blockers – biochemical, C. elegans, fluorescence polarization, dose response (AID 1960)
T8 sequence (Q9XUB2 whole entry): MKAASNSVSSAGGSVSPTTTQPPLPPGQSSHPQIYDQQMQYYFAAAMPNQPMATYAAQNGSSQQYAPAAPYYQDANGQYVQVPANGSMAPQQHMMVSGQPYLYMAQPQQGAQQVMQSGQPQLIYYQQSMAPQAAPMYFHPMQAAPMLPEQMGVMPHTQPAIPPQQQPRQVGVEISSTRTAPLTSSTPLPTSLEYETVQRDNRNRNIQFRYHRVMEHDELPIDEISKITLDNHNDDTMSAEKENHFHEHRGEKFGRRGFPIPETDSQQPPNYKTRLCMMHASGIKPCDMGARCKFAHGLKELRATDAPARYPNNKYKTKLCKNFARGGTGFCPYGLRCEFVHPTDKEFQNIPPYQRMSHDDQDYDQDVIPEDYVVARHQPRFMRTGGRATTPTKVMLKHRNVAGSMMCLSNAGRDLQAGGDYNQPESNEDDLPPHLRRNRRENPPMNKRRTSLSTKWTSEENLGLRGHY

[23] = target: T9, RNA-binding protein pos-1 (Caenorhabditis elegans, UniProt G5EF15); test: disruptors of C. elegans POS-1 RNA interaction – biochemical, fluorescence polarization, dose response (AID 1964);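 further: purified POS-1 fused to maltose binding protein made in E. coli; potency of compounds blocking POS-1 binding to fluorescent RNA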
T9 sequence (G5EF15 whole entry): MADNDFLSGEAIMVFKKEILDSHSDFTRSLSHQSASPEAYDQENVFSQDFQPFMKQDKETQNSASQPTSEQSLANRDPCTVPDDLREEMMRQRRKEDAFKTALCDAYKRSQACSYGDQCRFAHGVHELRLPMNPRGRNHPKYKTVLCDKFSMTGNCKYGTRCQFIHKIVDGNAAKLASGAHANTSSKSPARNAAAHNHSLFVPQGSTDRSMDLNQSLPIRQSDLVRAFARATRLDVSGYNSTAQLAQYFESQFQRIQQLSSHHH

[24] = target: T7, Sentrin-specific protease 1; test: Dose response confirmation of small molecule inhibitors of the catalytic domain of the SUMO protease, SENP1 in a FRET assay.; type: functional; settings: read-out: IC50_Mean
[25] = system: Cryptococcus neoformans; test: PubChem AID 686997; type: functional, organism-based
[26] = Luminescence Cell-Based Dose Retest to Confirm Inhibitors of Cancer Stem Cells. [Related pubchem assays (depositor defined):AID2717, AID2721]; type: functional; settings: Homo sapiens

CCCCNC(=O)O[C@H]1C[C@@H]2CCN3C(=O)CCC[C@H]([C@H]1Cc1ccccc1)[C@H]23
AC50 [1]: 38.6 µM (active)

Cc1ccc2c(C)cc[n+](CCCS(=O)(=O)[O-])c2c1
IC50 [2]: 5.92 µM (active)

CCc1cc(=O)oc2cc(C)c(CN3CCCC3)c(O)c12
IC50 [3]: > 59.6 µM (inactive)
IC50 [4]: > 59.6 µM (inactive)

COc1cccc(-n2c(S)nnc2CNC(=O)OC(C)(C)C)c1
IC50 [5]: > 59.6 µM (inactive)
IC50 [6]: > 59.6 µM (inactive)
AC50 [7]: 12.1 µM (active)
IC50 [8]: > 59.6 µM (inactive)

COc1cccc2c1C(=O)c1c(O)c3c(c(O)c1C2=O)CC(O)(C(C)=O)CC3OC1CC(O)C(O)C(C)O1 (stereo unspecified)
AC50 [9]: 0.395 µM (active)

CCc1cccc2c(C(=O)COC(=O)c3ccc(O)cc3)c[nH]c12
EC50 [10]: 2.89 µM (active)
AC50 [11]: 26.2 µM (active)
EC50 [12]: > 20 µM (inactive)
EC50 [13]: 9.37 µM (active)

COc1cc(C(c2c(C)n[nH]c2O)c2c(C)n[nH]c2O)ccc1OS(=O)(=O)c1ccccc1
EC50 [14]: 0.217 µM (active)
IC50 [15]: 72.9 µM (inactive)
AC50 [16]: 0.402 µM (active)
IC50 [17]: 45.2 µM (active)

C[C@@H]1CN([C@H](C)CO)C(=O)c2cc(NC(=O)Nc3cccc4ccccc34)ccc2O[C@@H](C)CCCCO[C@@H]1CN(C)Cc1ccc2c(c1)OCO2
AC50 [18]: < 0.195 µM (active)
AC50 [19]: 9.62 µM (active)
AC50 [20]: 22 µM (active)

COc1ccc2c(c1)c1nc3ccccc3nc1n2CCn1c(=O)oc2ccccc21
IC50 [21]: 38.6 µM (inactive)
EC50 [22]: > 300 µM (inconclusive)
EC50 [23]: > 300 µM (inconclusive)
IC50 [24]: 20.9 µM (inactive)

COc1ccc(C(=O)NC(=S)Nc2ccccc2N2CCCCC2)cc1[N+](=O)[O-]
AC50 [25]: > 70 µM (inactive)
AC50 [26]: 0.549 µM (active)
